Test results taken from US11629129B2, “Microbiocidal picolinamide derivatives” (SYNGENTA PARTICIPATIONS AG, priority 2018, dated 2023).

How the values were obtained:
[1] = tested on: Botryotinia fuckeliana (Botrvtis cinerea); test: Botryotinia fuckeliana (Botrvtis cinerea)/Liquid Culture (Gray Mould); assay type: cell-based; conditions: Botrytis cinerea; 200 ppm in the formulation; liquid culture, growth inhibition photometrically 3-4 days after application; compared to untreated control; read-out: disease control
Description: Botryotinia fuckeliana (Botrvtis cinerea)/Liquid Culture (Gray Mould) Conidia of the fungus from cryogenic storage are directly mixed into nutrient broth (Vogels broth). After placing a (DMSO) solution of test compound into a microtiter plate (96-well format), the nutrient broth containing the fungal spores is added. The test plates are incubated at 24° C. and the inhibition of growth is determined photometrically 3-4 days after application.

[2] = tested on: Glomerella lagenarium (Colletotrichum lagenarium); test: Glomerella lagenarium (Colletotrichum lagenarium)/Liquid Culture (Anthracnose); assay type: cell-based; conditions: Colletotrichum orbiculare; 200 ppm in the formulation; liquid culture, growth inhibition photometrically 3 to 4 days after application; compared to untreated control; read-out: disease control
Description: Glomerella lagenarium (Colletotrichum lagenarium)/Liquid Culture (Anthracnose) Conidia of the fungus from cryogenic storage are directly mixed into nutrient broth (PDB potato dextrose broth). After placing a (DMSO) solution of test compound into a microtiter plate (96-well format), the nutrient broth containing the fungal spores is added. The test plates are incubated at 24° C. and the inhibition of growth is measured photometrically 3 to 4 days after application.

[3] = tested on: Monographella nivalis (Microdochium nivale); test: Monographella nivalis (Microdochium nivale)/Liquid Culture (Foot Rot Cereals); assay type: cell-based; conditions: 200 ppm in the formulation, liquid culture, growth inhibition photometrically 4-5 days after application, compared to untreated control, read-out: disease control
Description: Monographella nivalis (Microdochium nivale)/Liquid Culture (Foot Rot Cereals) Conidia of the fungus from cryogenic storage are directly mixed into nutrient broth (PDB potato dextrose broth). After placing a (DMSO) solution of test compound into a microtiter plate (96-well format), the nutrient broth containing the fungal spores is added. The test plates are incubated at 24° C. and the inhibition of growth is determined photometrically 4-5 days after application.

[4] = tested on: Mycosphaerella arachidis (Cercospora arachidicola); test: Mycosphaerella arachidis (Cercospora arachidicola)/Liquid Culture (Early Leaf Spot); assay type: cell-based; conditions: 200 ppm in the formulation, liquid culture, growth inhibition photometrically 4-5 days after application, compared to untreated control, read-out: disease control
Description: Mycosphaerella arachidis (Cercospora arachidicola)/Liquid Culture (Early Leaf Spot) Conidia of the fungus from cryogenic storage are directly mixed into nutrient broth (PDB potato dextrose broth). After placing a (DMSO) solution of test compound into a microtiter plate (96-well format), the nutrient broth containing the fungal spores is added. The test plates are incubated at 24° C. and the inhibition of growth is determined photometrically 4-5 days after application.

[5] = tested on: Mycosphaerella graminicola (Septoria tritici); test: Mycosphaerella graminicola (Septoria tritici)/Liquid Culture (Septoria Blotch); assay type: cell-based; conditions: Zymoseptoria tritici; 200 ppm in the formulation; liquid culture, growth inhibition photometrically 4 to 5 days after application; compared to untreated control; read-out: disease control
Description: Mycosphaerella graminicola (Septoria tritici)/Liquid Culture (Septoria Blotch) Conidia of the fungus from cryogenic storage are directly mixed into nutrient broth (PDB potato dextrose broth). After placing a (DMSO) solution of test compound into a microtiter plate (96-well format), the nutrient broth containing the fungal spores is added. The test plates are incubated at 24° C. and the inhibition of growth is determined photometrically 4 to 5 days after application.

[6] = tested on: Puccinia recondita f. sp. tritici; test: Puccinia recondita f. sp. tritici/Wheat/Leaf Disc Preventative (Brown Rust); assay type: in vivo; conditions: foliar, 200 ppm in the formulation, wheat leaf segments cv. Kanzler, inoculated 1 day after application, assessed 7-9 days after application, compared to untreated, read-out: disease control
Description: Puccinia recondita f. sp. tritici/Wheat/Leaf Disc Preventative (Brown Rust) Wheat leaf segments cv. Kanzler are placed on agar in multiwell plates (24-well format) and sprayed with the formulated test compound diluted in water. The leaf disks are inoculated with a spore suspension of the fungus 1 day after application. The inoculated leaf segments are incubated at 19° C. and 75% rh under a light regime of 12 h light/12 h darkness in a climate cabinet and the activity of a compound is assessed as percent disease control compared to untreated when an appropriate level of disease damage appears in untreated check leaf segments (7-9 days after application).

[7] = tested on: Phaeosphaeria nodorum (Septoria nodorum); test: Phaeosphaeria nodorum (Septoria nodorum)/Wheat/Leaf Disc Preventative (Glume Blotch); assay type: in vivo; conditions: Parastagonospora nodorum, foliar; 200 ppm in the formulation; wheat leaf segments cv. Kanzler, inoculated 2 days after application, assessed 5-7 days after application; compared to untreated; read-out: disease control
Description: Phaeosphaeria nodorum (Septoria nodorum)/Wheat/Leaf Disc Preventative (Glume Blotch) Wheat leaf segments cv. Kanzler are placed on agar in a multiwell plate (24-well format) and sprayed with the formulated test compound diluted in water. The leaf disks are inoculated with a spore suspension of the fungus 2 days after application. The inoculated test leaf disks are incubated at 20° C. and 75% rh under a light regime of 12 h light/12 h darkness in a climate cabinet and the activity of a compound is assessed as percent disease control compared to untreated when an appropriate level of disease damage appears in untreated check leaf disks (5-7 days after application).

COc1ccnc(C(=O)N[C@@H](C)C(=O)O[C@@H](C)c2cccc(-c3ccccc3)c2)c1O [I.a.001, [(1S)-1-(3-phenylphenyl)ethyl] (2S)-2-[(3-hydroxy-4-methoxy-pyridine-2-carbonyl)amino] propanoate]
≥ 80%: inhibition of growth at 200 ppm [1] | inhibition of growth at 200 ppm [2] | inhibition of growth at 200 ppm [3] | inhibition of growth at 200 ppm [4] | inhibition of growth at 200 ppm [5]

COc1ccnc(C(=O)N[C@@H](C)C(=O)O[C@@H](C)c2cccc(Oc3ccc(Cl)cc3)c2)c1O [I.as.001, [(1S)-1-[3-(4-chlorophenoxy)phenyl]ethyl] (2S)-2-[(3-hydroxy-4-methoxy-pyridine-2-carbonyl)amino] propanoate]
≥ 80%: inhibition of growth at 200 ppm [1] | inhibition of growth at 200 ppm [2] | inhibition of growth at 200 ppm [4] | inhibition of growth at 200 ppm [5] | pest or weed control at 200 ppm [6]

COc1ccnc(C(=O)N[C@@H](C)C(=O)O[C@@H](C)c2cccc(-c3ccccc3Cl)c2)c1O [I.b.001, [(1S)-1-[3-(2-chlorophenyl)phenyl]ethyl] (2S)-2-[(3-hydroxy-4-methoxy-pyridine-2-carbonyl)amino] propanoate]
≥ 80%: inhibition of growth at 200 ppm [1] | inhibition of growth at 200 ppm [3] | inhibition of growth at 200 ppm [4] | inhibition of growth at 200 ppm [5] | pest or weed control at 200 ppm [6]

COc1ccnc(C(=O)N[C@@H](C)C(=O)O[C@@H](C)c2ccc(-c3cscc3C)cc2)c1O [I.bb.001, [(1S)-1-[4-(4-methyl-3-thienyl)phneyl]ethyl] (2S)-2-[(3-hydroxy-4-methoxy-pyridine-2-carbonyl)amino] propanoate]
≥ 80%: inhibition of growth at 200 ppm [2] | inhibition of growth at 200 ppm [3] | inhibition of growth at 200 ppm [4] | inhibition of growth at 200 ppm [5] | pest or weed control at 200 ppm [6]

COc1ccnc(C(=O)N[C@@H](C)C(=O)O[C@@H](C)c2ccc(-c3ccccc3)cc2)c1O [I.d.001, [(1S)-1-(4-phenylphenyl)ethyl] (2S)-2-[(3-hydroxy-4-methoxy-pyridine-2-carbonyl)amino] propanoate]
≥ 80%: inhibition of growth at 200 ppm [1] | inhibition of growth at 200 ppm [2] | inhibition of growth at 200 ppm [3] | inhibition of growth at 200 ppm [4] | inhibition of growth at 200 ppm [5] | pest or weed control at 200 ppm [6]

COc1ccnc(C(=O)N[C@@H](C)C(=O)O[C@@H](C)c2ccc(-c3ccccc3)cc2)c1OC(C)=O [I.d.019, [(1S)-1-(4-phenylphenyl)ethyl] (2S)-2-[(3-acetoxy-4-methoxy-pyridine-2-carbonyl)amino] propanoate]
≥ 80%: inhibition of growth at 200 ppm [5] | pest or weed control at 200 ppm [7] | pest or weed control at 200 ppm [6]

COc1ccnc(C(=O)N[C@@H](C)C(=O)O[C@@H](C)c2ccc(-c3ccccc3)c(F)c2)c1O [I.e.001, [(1S)-1-(3-fluoro-4-phenyl-phenyl)ethyl] (2S)-2-[(3-hydroxy-4-methoxy-pyridine-2-carbonyl)amino] propanoate]
≥ 80%: inhibition of growth at 200 ppm [1] | inhibition of growth at 200 ppm [2] | inhibition of growth at 200 ppm [3] | inhibition of growth at 200 ppm [4] | inhibition of growth at 200 ppm [5] | pest or weed control at 200 ppm [6]

COc1ccnc(C(=O)N[C@@H](C)C(=O)O[C@@H](C)c2ccc(-c3ccccc3C(C)C)cc2)c1O [I.j.001, [(1S)-1-[4-(2-isopropylphenyl)phenyl]ethyl] (2S)-2-[(3-hydroxy-4-methoxy-pyridine-2-carbonyl)amino] propanoate]
≥ 80%: inhibition of growth at 200 ppm [2] | inhibition of growth at 200 ppm [3] | inhibition of growth at 200 ppm [4] | inhibition of growth at 200 ppm [5] | pest or weed control at 200 ppm [6]

COc1ccnc(C(=O)N[C@@H](C)C(=O)O[C@@H](C)c2ccc(-c3cc(C)ccc3C)cc2)c1O [I.p.001, [(1S)-1-[4-(2,5-dimethylphenyl)phenyl]ethyl] (2S)-2-[(3-hydroxy-4-methoxy-pyridine-2-carbonyl)amino] propanoate]
≥ 80%: inhibition of growth at 200 ppm [1] | inhibition of growth at 200 ppm [2] | inhibition of growth at 200 ppm [4] | inhibition of growth at 200 ppm [5] | pest or weed control at 200 ppm [6]

COc1ccnc(C(=O)N[C@@H](C)C(=O)O[C@@H](C)c2ccc(-c3cccc(Cl)c3)cc2)c1O [I.r.001, [(1SS)-1-[4-(3-chlorophenyl)phenyl]ethyl] (2S)-2-[(3-hydroxy-4-methoxy-pyridine-2-carbonyl)amino] propanoate]
≥ 80%: inhibition of growth at 200 ppm [1] | inhibition of growth at 200 ppm [2] | inhibition of growth at 200 ppm [3] | inhibition of growth at 200 ppm [4] | inhibition of growth at 200 ppm [5] | pest or weed control at 200 ppm [6]

COc1ccnc(C(=O)N[C@@H](C)C(=O)O[C@@H](C)c2ccc(-c3ccc(Cl)cc3)cc2)c1O [I.u.001, [(1S)-1-[4-(4-chlorophenyl)phenyl]ethyl] (2S)-2-[(3-hydroxy-4-methoxy-pyridine-2-carbonyl)amino] propanoate]
≥ 80%: inhibition of growth at 200 ppm [1] | inhibition of growth at 200 ppm [2] | inhibition of growth at 200 ppm [3] | inhibition of growth at 200 ppm [4] | inhibition of growth at 200 ppm [5] | pest or weed control at 200 ppm [6]

COc1ccnc(C(=O)N[C@@H](C)C(=O)O[C@@H](C)c2ccc(-c3ccc(C(F)(F)F)cc3)cc2)c1O [I.x.001, [(1S)-1-[4-[4-(trifluoromethyl)phenyl]phenyl]ethyl] (2S)-2-[(3-hydroxy-4-methoxy-pyridine-2-carbonyl)amino] propanoate]
≥ 80%: inhibition of growth at 200 ppm [1] | inhibition of growth at 200 ppm [2] | inhibition of growth at 200 ppm [3] | inhibition of growth at 200 ppm [4] | inhibition of growth at 200 ppm [5] | pest or weed control at 200 ppm [6]

COc1ccnc(C(=O)N[C@@H](C)C(=O)O[C@@H](C)c2ccc(-c3cccc4ccccc34)cc2)c1O [I.z.001, [(1S)-1-[4-(1-naphthyl)phenyl]ethyl] (2S)-2-[(3-hydroxy-4-methoxy-pyridine-2-carbonyl)amino] propanoate]
≥ 80%: inhibition of growth at 200 ppm [1] | inhibition of growth at 200 ppm [2] | inhibition of growth at 200 ppm [4] | inhibition of growth at 200 ppm [5] | pest or weed control at 200 ppm [6]
